What was measured:
EOC-20 microglia = test: TNFα-stimulated nitrite production in EOC-20 microglia (Griess assay); format: cell-based, mouse
Protocol: Mouse EOC-20 microglia (American Tissue Type Collection, Gaithersville Md. USA) (Hensley et al., 2003; Walker et al., 1995) were grown in DMEM containing 20% L929 fibroblast-supplemented medium. Nitrite production by cytokine stimulated microglia was measured in cell culture medium using the Griess diazotization reaction as previously reported (Hensley et al., 2003; West et al., 2004).
The efficacy of (R)-LKE1 and (R)-LK as inhibitors of microglial cell activation in response to pro-inflammatory cytokines is shown in FIGS. 1A & 1B. EOC-20 murine microglial cells were pretreated 30 minutes with test compounds (e.g. (R)-LK or (R)-LKE1) dissolved in DMSO and diluted 1:200 into cell culture medium; or with DMSO vehicle only. Cells were then challenged with cytokine and allowed to incubate undisturbed in the cell culture incubator for 24 h prior to Griess assay. The lanthionine ketimine ester in this case is the structure shown above as (R)-LKE1. After drug treatment cells were then stimulated with 40 ng/mL recombinant murine tumor necrosis factor alpha (TNF α) plus 50U/mL interferon gamma (IFNγ). Nitrite (NO2^−) was measured in the cell culture medium 24 hours later, as an index of nitric oxide production. Cell viability was then assayed in the same cultures using a commercially available tetrazolium reduction assay (Promega OneStep™; Promega, Gaithersburg Md.). Cell culture methods were those published by the inventor (Hensley et al., 2003; West et al., 2004).
In a EOC-20 microglial assay the cells were stimulated with TNFα in the presence or absence of 100 microM (R)- or (S)-LK, and nitrite was measured 24 h later, the net suppression of nitrite was 13% by (S)-LK and 15% by (R)-LK.
The reduced lanthionine ketimine (i.e., TMDCA) was also tested against TNFα-stimulated nitrite production in the EOC-20 screen.

C6 glioma cells = test: stimulated nitrite production in C6 glioma cells; format: cell-based
RAW 264.7 macrophages = test: LPS-stimulated nitrite production in RAW 264.7 macrophages; format: cell-based; conditions: 24-48 h
Protocol: Primary astrocytes were cultured from neonatal R6/2 transgenic mouse pups (“Htt+”) which are the standard murine model for Huntington's disease (animals commercially obtained from Jackson Labs) or nontransgenic littermates. For RAW cell studies, RAW264.7 macrophages were obtained commercially from American Type Culture Collection. RAW 264.7 macrophages were grown in DMEM plus 10% FBS and 1% Pen/Strep. Cells were maintained in culture according to published methods. Cells were treated with +/−[…] bacterial lipopolysaccharide serotype 0127:B8 (Sigma Chemical)+/−various concentrations of (R)-LKE1 for 24-48 h. (R)-LKE1 was added 30 minutes prior to LPS challenge. Nitrite was measured in the cell culture medium using the Griess diazotization assay. Cells were lysed and Western blots performed for protein expression or in other experiments for ribonuclease protection assays.

human PB monocytes = test: intracellular TNFα in human peripheral blood monocytes by flow cytometry; format: cell-based
Source text: Identification of TNFα positive monocytes in peripheral blood by flow cytometry: PB monocytes expressing TNF in response to LPS or PG can be identified and counted using flow cytometry with fluorescent antibodies to stain TNFα. To identify the percentage of monocytes expressing TNFα, PB was stimulated with LPS or PG, stained for surface markers to distinguish monocytes from other leukocytes, and stained for intracellular TNFα to identify monocytes expressing TNFα. The percentage of monocytes positive for TNFα was compared among samples stimulated with LPS, PG, with and without pretreatment with (R)-LKE1, and non-stimulated samples.
The fluorescent antibodies used to identify monocytes surface markers were anti-human CD14-phycoerythrin (PE) and andtiCD16b-fluorescein isothyocyanate (FITC), based on staining intensity for each marker. Monocytes are positive for CD14 and negative for CD16b. This method of separating monocytes from neutrophils was confirmed by sorting cells based on CD14/CD16b intensity, preparing slides, staining with May-Grunwald Giemsa and confirming by morphology.
For analysis of CD14 positive, CD16b negative cells we used dot plots. We first excluded lymphocytes from the analysis by their forward scatter (FSC) and side scatter (SSC) properties, drawing a monocyte/neutrophil gate to exclude lymphocytes (not shown). We then identified CD14+, (y-axis) CD16b− (x-axis) cells by comparison with an unstained sample.
A third dye, PE-Cye7 was used for intracellular cytokine staining of TNFα. The TNFα positive monocytes were identified on a second dot plot of SSC vs. TNFα PE-Cye7 for monocytes only. Cells were counted as positive for TNFα expression if the intensity of PE-Cye7 was greater than in the non-stimulated control. The percent of TNFα positive monocytes was calculated using number positive/total number of monocytes.
PB, heparinized, was diluted 1:3 with DMEM. Diluted blood was placed in 1.0 ml aliquots into wells of a non tissue culture plate. PB was pre-incubated at 37° C. for one hour with LKE (1 mM) or the diluent DMSO (10 μl). […]

## CCOC(=O)[C@@H]1CSCC(C(=O)O)=N1 [(R)-LKE1]
EOC-20 microglia; FIG. 1A
  potency at suppressing cytokine activation relative to unesterified lanthionine ketimine: statistically significantly more potent
EOC-20 microglia; TNFα-stimulated EOC-20 microglia
  inhibition of nitrite production: inhibited nitrite production
C6 glioma cells; stimulated by TNFα+IFNγ
  suppression of nitrite production: does not suppress nitrite production
C6 glioma cells; stimulated by TNFα+LPS
  suppression of nitrite production: not to suppress nitrite production
RAW 264.7 macrophages
  inhibition of LPS-stimulated nitric oxide production: inhibited LPS stimulated nitric oxide production
Human PB monocytes; 1 mM pre-incubation, PG 10 ug/ml
  percent monocytes staining positively for TNFα: 0.76%
Human PB monocytes; 1 mM pre-incubation, Ultra Pure LPS 1 μg/ml
  percent monocytes staining positively for TNFα: 25.9%
Human PB monocytes; 1 mM, no stimulus
  percent monocytes staining positively for TNFα: 0.96%
